Results taken from ChEMBL document CHEMBL1208683, “Insights into binding modes of adenosine A(2B) antagonists with ligand-based and receptor-based methods” (Eur J Med Chem, 2010).

How the values were obtained:
Adenosine receptor A2a [1] = molecular target: Adenosine receptor A2a (Rattus norvegicus, UniProt P30543); experiment: Antagonist activity against rat adenosine A2A receptor; type: functional
Adenosine receptor A1 [2] = molecular target: T1, Adenosine receptor A1 (Rattus norvegicus, UniProt P25099); experiment: Antagonist activity against rat adenosine A1 receptor; type: functional
T1 sequence (P25099 whole entry): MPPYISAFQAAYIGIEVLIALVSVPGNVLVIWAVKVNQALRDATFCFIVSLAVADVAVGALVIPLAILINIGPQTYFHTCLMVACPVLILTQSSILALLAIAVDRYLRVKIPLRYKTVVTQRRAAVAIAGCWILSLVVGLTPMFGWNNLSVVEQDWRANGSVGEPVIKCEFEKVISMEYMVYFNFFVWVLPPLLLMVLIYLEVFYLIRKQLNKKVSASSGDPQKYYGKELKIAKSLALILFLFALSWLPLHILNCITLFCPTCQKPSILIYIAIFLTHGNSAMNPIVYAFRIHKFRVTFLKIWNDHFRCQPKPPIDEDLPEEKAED

Adenosine receptor A2b = molecular target: T2, Adenosine receptor A2b (Homo sapiens, UniProt P29275)
T2 sequence (P29275 whole entry): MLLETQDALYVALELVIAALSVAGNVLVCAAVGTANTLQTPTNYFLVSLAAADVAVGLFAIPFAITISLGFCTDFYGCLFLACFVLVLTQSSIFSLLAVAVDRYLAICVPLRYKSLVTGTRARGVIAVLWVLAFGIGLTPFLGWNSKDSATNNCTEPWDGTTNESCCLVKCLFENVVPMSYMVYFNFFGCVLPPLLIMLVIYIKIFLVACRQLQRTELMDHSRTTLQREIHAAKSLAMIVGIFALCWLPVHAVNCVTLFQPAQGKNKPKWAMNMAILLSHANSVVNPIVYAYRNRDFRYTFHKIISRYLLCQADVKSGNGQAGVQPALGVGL
Description: Antagonist activity against human adenosine A2B receptor

Adenosine receptor A3 = molecular target: T3, Adenosine receptor A3 (Homo sapiens, UniProt P0DMS8)
T3 sequence (P0DMS8 whole entry): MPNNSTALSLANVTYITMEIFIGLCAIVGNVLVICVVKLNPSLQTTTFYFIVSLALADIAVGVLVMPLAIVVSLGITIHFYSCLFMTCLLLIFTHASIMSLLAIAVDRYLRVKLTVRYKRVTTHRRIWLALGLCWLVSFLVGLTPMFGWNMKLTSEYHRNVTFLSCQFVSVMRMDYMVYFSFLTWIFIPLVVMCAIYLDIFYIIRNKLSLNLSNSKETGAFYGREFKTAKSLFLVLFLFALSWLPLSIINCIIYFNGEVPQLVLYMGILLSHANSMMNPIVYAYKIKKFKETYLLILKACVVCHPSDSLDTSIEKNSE
Description: Antagonist activity against human adenosine A3 receptor

Adenosine receptor A2a [3] = molecular target: T4, Adenosine receptor A2a (Homo sapiens, UniProt P29274)
T4 sequence (P29274 whole entry): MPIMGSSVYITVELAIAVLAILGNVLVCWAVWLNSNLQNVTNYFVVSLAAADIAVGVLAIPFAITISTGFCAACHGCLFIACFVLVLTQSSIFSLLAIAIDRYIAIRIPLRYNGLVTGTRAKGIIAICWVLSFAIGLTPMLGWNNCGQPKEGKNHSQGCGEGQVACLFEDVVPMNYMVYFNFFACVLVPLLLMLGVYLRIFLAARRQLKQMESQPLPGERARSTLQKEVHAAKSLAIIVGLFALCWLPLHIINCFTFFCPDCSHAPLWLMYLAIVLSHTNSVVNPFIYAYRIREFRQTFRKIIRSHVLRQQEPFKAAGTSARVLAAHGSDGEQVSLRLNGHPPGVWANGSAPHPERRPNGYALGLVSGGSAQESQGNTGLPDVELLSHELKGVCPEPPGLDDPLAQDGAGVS
Description: (§1) Antagonist activity against human adenosine A2A receptor

Adenosine receptor A2a [4] = molecular target: T4, Adenosine receptor A2a; remark: listed apart in the source
Description: as §1

Adenosine receptor A1 [5] = molecular target: T5, Adenosine receptor A1 (Homo sapiens, UniProt P30542)
T5 sequence (P30542 whole entry): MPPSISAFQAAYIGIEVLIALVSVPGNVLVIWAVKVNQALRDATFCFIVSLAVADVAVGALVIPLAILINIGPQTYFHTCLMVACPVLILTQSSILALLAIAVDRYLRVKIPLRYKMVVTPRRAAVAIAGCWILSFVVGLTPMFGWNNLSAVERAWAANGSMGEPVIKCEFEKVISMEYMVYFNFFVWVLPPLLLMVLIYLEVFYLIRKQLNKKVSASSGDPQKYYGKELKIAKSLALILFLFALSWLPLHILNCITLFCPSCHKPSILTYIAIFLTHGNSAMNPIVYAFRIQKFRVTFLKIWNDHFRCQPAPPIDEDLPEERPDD
Description: Antagonist activity against human adenosine A1 receptor

Sequence of Adenosine receptor A2a (Rattus norvegicus, UniProt P30543) (P30543 whole entry): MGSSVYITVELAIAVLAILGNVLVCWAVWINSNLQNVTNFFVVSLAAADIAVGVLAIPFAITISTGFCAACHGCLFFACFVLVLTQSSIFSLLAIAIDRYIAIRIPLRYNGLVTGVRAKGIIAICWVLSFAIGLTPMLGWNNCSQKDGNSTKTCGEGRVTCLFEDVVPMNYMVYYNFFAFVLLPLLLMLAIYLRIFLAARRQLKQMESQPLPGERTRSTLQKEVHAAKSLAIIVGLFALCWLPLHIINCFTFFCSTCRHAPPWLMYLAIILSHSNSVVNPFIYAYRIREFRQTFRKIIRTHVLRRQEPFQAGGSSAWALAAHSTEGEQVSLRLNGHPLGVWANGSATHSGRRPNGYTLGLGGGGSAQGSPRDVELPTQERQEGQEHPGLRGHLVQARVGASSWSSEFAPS

Compound	Ki (Adenosine receptor A2b) [µM]	Ki (Adenosine receptor A3) [µM]	also measured
COc1ccc2c(C)nc(NC3=NCC(=O)N3)nc2c1	0.112	–	Ki (Adenosine receptor A2a [1]): 2.4 µM; Ki (Adenosine receptor A1 [2]): 1.29 µM
CCOc1cccc2c(C)nc(N=C(N)N)nc12	1.78	–	Ki (Adenosine receptor A2a [1]): 0.624 µM; Ki (Adenosine receptor A1 [2]): 1.33 µM
Cn1c(=O)c2[nH]c(-c3ccc(S(=O)(=O)NCC(=O)O)cc3)nc2n(C)c1=O	–	> 10	–

The next lines start with results.

Ki (Adenosine receptor A2b) [µM]	Ki (Adenosine receptor A3) [µM]	Compound	also measured
–	> 1	CCCn1c(=O)[nH]c2[nH]c(-c3ccc(S(=O)(=O)NCc4ccccc4)cc3)nc2c1=O	–
1.66	> 9	Cn1c(=O)c2c(nc(-c3ccccc3)n2O)n(C)c1=O	Activity (Adenosine receptor A2a [3]): 12%
1.29	2.81	Nc1nc(-n2cncn2)c2nnn(Cc3ccccc3F)c2n1	Ki (Adenosine receptor A2a [4]): 0.4 µM; Ki (Adenosine receptor A1 [5]): 2.96 µM
–	0.054	CCCn1c(=O)c2nc(-c3cnn(Cc4cc(C(F)(F)F)ccc4Cl)c3)[nH]c2n(CCC)c1=O	–
